Measurements as given in patent US11021481B2, “Substituted isoindolin-1-ones and 2,3-dihydro-1h-pyrrolo[3,4-c]pyridin-1-ones as HPK1 antagonists” (Nimbus Saturn, Inc., priority 2019, dated 2021).

These molecules were tested against HPK1 (Homo sapiens (Human), UniProt Q92918) (assay: HPK1 biochemical enzyme assay (microfluidic mobility shift assay)). Details: 1.5 nM HPK1, ATP 1 mM final, 30 min preincubation, 60 min at RT, Caliper EZ Reader; read-out: HPK1 1000UMATP caliper IC50.
Outline: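 Ten-point compound titrations (top 3 μM final) preincubated 30 min with HPK1 and substrate, then reaction started with 1 mM ATP and 1 μM substrate, 5 mM MgCl2. After 60 min at RT, reaction terminated and product measured by microfluidic mobility shift.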

Chain of HPK1 (Q92918 whole entry): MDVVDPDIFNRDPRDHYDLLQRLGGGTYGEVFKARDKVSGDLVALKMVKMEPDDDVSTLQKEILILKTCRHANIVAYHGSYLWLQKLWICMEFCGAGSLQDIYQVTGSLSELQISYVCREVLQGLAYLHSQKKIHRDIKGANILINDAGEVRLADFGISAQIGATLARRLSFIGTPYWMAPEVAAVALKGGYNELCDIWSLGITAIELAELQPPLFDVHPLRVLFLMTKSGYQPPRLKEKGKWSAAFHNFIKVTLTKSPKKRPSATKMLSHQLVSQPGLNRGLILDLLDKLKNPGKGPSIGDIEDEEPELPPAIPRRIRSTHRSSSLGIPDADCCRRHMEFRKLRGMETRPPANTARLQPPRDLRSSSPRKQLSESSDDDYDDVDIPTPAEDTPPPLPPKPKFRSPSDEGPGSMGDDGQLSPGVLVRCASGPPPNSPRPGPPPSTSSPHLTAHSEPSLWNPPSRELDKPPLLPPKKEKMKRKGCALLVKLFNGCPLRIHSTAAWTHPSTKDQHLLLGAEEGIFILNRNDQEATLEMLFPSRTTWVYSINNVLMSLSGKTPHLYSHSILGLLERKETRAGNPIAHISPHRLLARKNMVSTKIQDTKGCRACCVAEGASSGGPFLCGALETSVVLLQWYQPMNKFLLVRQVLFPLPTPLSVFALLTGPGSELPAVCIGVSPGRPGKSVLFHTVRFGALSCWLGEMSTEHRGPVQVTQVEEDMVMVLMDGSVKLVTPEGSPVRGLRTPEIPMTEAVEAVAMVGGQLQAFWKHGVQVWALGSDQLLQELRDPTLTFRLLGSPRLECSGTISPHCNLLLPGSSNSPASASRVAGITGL

SMILES | IC50
O=C1NCc2c(-c3cnc4cc(F)ccn34)ccc(Nc3cc(C4CCOCC4)[nH]n3)c21 [I-381, 4-(7-fluoroimidazo [1,2-a]pyridin-3-yl)-7-((5-(tetrahydro-2H-pyran-4-yl)-1H-pyrazol-3-yl)amino)isoin-dolin-1-one] | < 100 nM
O=C1NCc2c(-c3cnc4cc(F)ccn34)ccc(Nc3ccc(N4CC[C@H](F)[C@@H](O)C4)cn3)c21 [I-346, 7-((5-((3S.4S)-4-fluoro-3-hydroxypiperidin-1-yl)pyridin-2-yl)amino)-4-(7-fluoroimidazo [1,2-a]pyridin-3-yl)isoindolin-1-one] | < 100 nM
O=C1NCc2c(-c3ccnc4c3ccn4C(F)F)ccc(Nc3ccc(N4CCNCC4)cn3)c21 [I-119, 4-[l-(difluorometh-yl)pyrrolo[2,3-b]pyridin-4-yl]-7-[(5-piperazin-1-yl-2-pyridyl)amino] isoindolin-1-one] | < 100 nM
CN1CCN(c2ccc(Nc3cnc(-c4cnn5c4CCCC5)c4c3C(=O)NC4)nc2)CC1 [I-255, 7-((5-(4-methylpiperazin-1-yl)pyridin-2-yl)amino)-4-(4,5,6,7-tetrahydropyra-zolo[1,5-a]pyridin-3-yl)-2,3-dihydro-1H-pyrrolo[3,4-c]pyridin-1-one] | < 100 nM
CN(C)Cc1ccn2c(-c3ccc(Nc4ccc(N5CCC(O)CC5)cn4)c4c3CNC4=O)cnc2c1 [I-380, 4-(7-((dimethylamino)-methyl)imi-dazo[1,2-a]pyridin-3-yl)-7-((5-(4-hydroxy-piperidin-1-yl)pyridin-2-yl)amino)isoin-dolin-1-one] | 100 to 1000 nM
Cc1ccn2c(-c3ccc(Nc4ccc(S(C)(=O)=O)cn4)c4c3CNC4=O)cnc2c1 [I-148, 4-(7-methylimidazo [1,2-a]pyridin-3-yl)-7-[(5-methylsulfony 1-2-pyridyl)amino] isoindolin-1-one] | < 100 nM
CN1CC[C@H](c2ccc(Nc3ccc(-c4cnc5cc(F)ccn45)c4c3C(=O)NC4)nc2)C1=O [I-336, (R)-4-(7-fluoroimidazo [1,2-a]pyridin-3-yl)-7-((5-(1-methyl-2-oxopyrrolidin-3-yl)pyridin-2-yl)amino)isoin-dolin-1-one] | < 100 nM
O=C1NCc2c(-c3cnc4cc(F)ccn34)ccc(Nc3ccc(N4CCOCC45CC5)cn3)c21 [I-335, 7-((5-(7-oxa-4-azaspiro[2.5]octan-4-yl)pyridin-2-yl)amino)-4-(7-fluoroimidazo [1,2-a]pyridin-3-yl)isoindolin-1-one] | < 100 nM
Cn1ccc2c(-c3ncc(Nc4ccc([C@@H]5CCOC5)cn4)c4c3CNC4=O)ccnc21 [I-219, (S)-4-(1-methyl-1H-pyrrolo[2,3-b]pyridin-4-yl)-7-((5-(tetrahydro-furan-3-yl)pyridin-2-yl)amino)-2,3-dihydro-1H-pyrrolo[3,4-c]pyridin-1-one] | < 100 nM
CC(C)(O)[C@H]1CCCN(c2ccc(Nc3ccc(-c4cnc5cnccn45)c4c3C(=O)NC4)nc2)C1 [I-310, (S)-7-((5-(3-(2-hydroxypropan-2-yl)piperidin-1-yl)pyridin-2-yl)amino)-4-(imidazo[1,2-a]pyrazin-3-yl)isoindolin-1-one] | < 100 nM
Cn1ccn2c(-c3ccc(Nc4ccc(N5CCC(O)CC5)cn4)c4c3CNC4=O)cnc2c1=O [I-168, 3-[7-[[5-(4-hydroxy-1-piperidyl)-2-pyridyl]amino]-1-oxo-isoindolin-4-yl]-7-methyl-imidazo[1,2-a]pyrazin-8-one] | < 100 nM
Cn1ccc2c(-c3ncc(Nc4ccc5c(n4)CNCC5)c4c3CNC4=O)ccnc21 [I-413] | > 1000 nM
Cc1cnc2[nH]ccc2c1-c1ccc(Nc2ccc(N3CCN(C)CC3)cn2)c2c1CNC2=O [I-78, 7-[[5-(4-methylpiperazin-1-yl)-2-pyridyl]amino]-4-(5-methyl-1H-pyrrolo[2,3-b]pyridin-4-yl)isoindolin-1-one] | 100 to 1000 nM
Cc1ccc2c(-c3ccc(Nc4ccc(N5CCC(O)CC5)cn4)c4c3CNC4=O)cnn2c1 [I-137, 7-[[5-(4-hydroxy-1-piperidyl)-2-pyridyl]amino]-4-(6-methylpyrazolo[1,5-a]pyridin-3-yl)isoindolin-1-one] | < 100 nM
Cc1ccn2c(-c3ncc(Nc4ccc(N5CCNCC5)cn4)c4c3CNC4=O)cnc2c1 [I-124, 4-(7-methylimidazo [1,2-a]pyridin-3-yl)-7-[(5-piperazin-1-yl-2-pyridyl)amino]-2,3-dihydropyrrolo [3,4-c]pyridin-1-one] | < 100 nM
O=C1NCc2c(-c3cnc4cc(F)ccn34)ccc(Nc3cccc(N4CCC5CNCC54)n3)c21 (stereo not drawn) [I-493] | < 100 nM

Now from value to molecule:

IC50 | SMILES
< 100 nM | Cc1ccn2c(-c3ccc(Nc4ccc(N5CC[C@@H](F)[C@H](O)C5)cn4)c4c3CNC4=O)cnc2c1F [I-583, 7-((5-((3R,4R]-4-fluoro-3-hydroxypiperidin-1-yl)pyridin-2-yl)amino)-4-(8-fluoro-7-methylimidazo [1,2-a]pyridin-3-yl)isoindolin-1-one]
< 100 nM | C[C@@H](O)[C@H]1CN(c2ccc(Nc3ccc(-c4cnc5cc(F)ccn45)c4c3C(=O)NC4)nc2)CCO1 (single isomer, unassigned) [I-619]
< 100 nM | O=C1NCc2c(-c3cnc4c(F)cccn34)ncc(Nc3ccc(N4CC[C@@H](F)[C@H](O)C4)cn3)c21 [I-652, 7-((5-((3R,4R)-4-fluoro-3-hydroxypiperidin-1-yl)pyridin-2-yl)amino)-4-(8-fluoroimidazo [1,2-a]pyridin-3-yl)-2,3-dihydro-1H-pyrrolo[3,4-c]pyridin-1-one]
> 1000 nM | O=C1NCc2c(-c3ccnn4ccnc34)ncc(Nc3ccc(N4CCC(O)CC4)cn3)c21 [I-565, 7-((5-(4-hydroxypiperidin-1-yl)pyridin-2-yl)amino)-4-(imidazo[1,2-b]pyridazin-8-yl)-2,3-dihydro-1H-pyrrolo[3,4-c]pyridin-1-one]
< 100 nM | Cc1ccn2c(-c3ccc(Nc4ccc(N5CCOC(CN(C)C)C5)cn4)c4c3CNC4=O)cnc2c1F (stereo in doubt) [I-614, (R)-7-((5-(2-((dimethylamino)-methyl)mor-pholino)pyridin-2-yl)amino)-4-(8-fluoro-7-methylimidazo [1,2-a]pyridin-3-yl)isoindolin-1-one]
< 100 nM | Cc1cnn2c(-c3ccc(Nc4ccc([C@H]5CCOC5)c(CN(C)C)n4)c4c3CNC4=O)cnc2c1 [I-537, (R)-7-((6-((dimethylamino)-methyl)-5-(tetrahydrofuran-3-yl)pyridin-2-yl)amino)-4-(7-methylimidazo [1,2-b]pyridazin-3-yl)isoindolin-1-one]
< 100 nM | Cc1cc(Nc2cnc(-c3ccnc4c3ccn4C)c3c2C(=O)NC3)nc(N2CC[C@H]3CN(C)C[C@H]32)c1 [I-643, 4-(1-methyl-1H-pyrrolo[2,3-b]pyridin-4-yl)-7-((4-methyl-6-((3aS,6aS)-5-methylhcxahydropyrrolo[3,4-b]pyrrol-1(2H)-yl)pyridin-2-yl)amino)-2,3-dihydro-1H-pyrrolo[3,4-c]pyridin-1-one]
< 100 nM | CN(C)C(C)(C)C1CCCN(c2ccc(Nc3ccc(-c4cnc5cc(F)ccn45)c4c3C(=O)NC4)nc2)C1 (stereo in doubt) [I-606, (R)-7-((5-(3-(2-(dimethylami-no)propan-2-yl)piperidin-1-yl)pyridin-2-yl)amino)-4-(7-fluoroimidazo [1,2-a]pyridin-3-yl)isoindolin-1-one]
